Source: ChEMBL document CHEMBL3217615, “Novel 3,5-bis(arylidiene)-4-piperidone based monocarbonyl analogs of curcumin: anticancer activity evaluation and mode of action study” (2014)

Tests used:
Format in all cases: functional
IGROV-1 [1] = experiment: Growth inhibition of human IGROV1 cells assessed as cell growth at 10^-6 M after 48 hrs by sulforhodamine B assay; details: IGROV-1, 48 h, read-out: Activity
SK-MEL-5 [2] = experiment: Growth inhibition of human SK-MEL-5 cells assessed as cell growth at 10^-6 M after 48 hrs by sulforhodamine B assay; details: SK-MEL-5, 48 h, read-out: Activity
[3] = Growth inhibition of human HCC2998 cells assessed as cell growth at 10^-6 M after 48 hrs by sulforhodamine B assay; details: HCC 2998, 48 h, read-out: Activity
[4] = Growth inhibition of human OVCAR4 cells assessed as cell growth at 10^-5 M after 48 hrs by sulforhodamine B assay; details: OVCAR-4, 48 h, read-out: Activity
[5] = Growth inhibition of human OVCAR5 cells assessed as cell growth at 10^-5 M after 48 hrs by sulforhodamine B assay; details: OVCAR-5, 48 h, read-out: Activity
[6] = Growth inhibition of human UACC62 cells assessed as cell growth at 10^-5 M after 48 hrs by sulforhodamine B assay; details: UACC-62, 48 h, read-out: Activity
Malme-3M = experiment: Growth inhibition of human MALME-3M cells assessed as cell growth at 10^-5 M after 48 hrs by sulforhodamine B assay; details: read-out: Activity
SNB-19 [7] = experiment: Growth inhibition of human SNB19 cells assessed as cell growth at 10^-5 M after 48 hrs by sulforhodamine B assay; details: SNB-19, 48 h, read-out: Activity
SNB-75 = experiment: Growth inhibition of human SNB75 cells assessed as cell growth at 10^-5 M after 48 hrs by sulforhodamine B assay; details: SNB-75, 48 h, read-out: Activity
[8] = Growth inhibition of human HCC2998 cells assessed as cell growth at 10^-5 M after 48 hrs by sulforhodamine B assay; details: HCC 2998, 48 h, read-out: Activity
NCI-H522 [9] = experiment: Growth inhibition of human NCI-H522 cells assessed as cell growth at 10^-5 M after 48 hrs by sulforhodamine B assay; details: NCI-H522, 48 h, read-out: Activity
NCI-H226 = experiment: Growth inhibition of human NCI-H226 cells assessed as cell growth at 10^-5 M after 48 hrs by sulforhodamine B assay; details: NCI-H226, 48 h, read-out: Activity
[10] = Growth inhibition of human HOP92 cells assessed as cell growth at 10^-5 M after 48 hrs by sulforhodamine B assay; details: HOP-92, 48 h, read-out: Activity
A549 = experiment: Growth inhibition of human A549/ATCC cells assessed as cell growth at 10^-5 M after 48 hrs by sulforhodamine B assay; details: A549, 48 h, read-out: Activity
RPMI-8226 = experiment: Growth inhibition of human RPMI8226 cells assessed as cell growth at 10^-5 M after 48 hrs by sulforhodamine B assay; details: RPMI-8226, 48 h, read-out: Activity
[11] = Growth inhibition of human MOLT4 cells assessed as cell growth at 10^-5 M after 48 hrs by sulforhodamine B assay; details: MOLT-4, 48 h, read-out: Activity
CCRF-CEM [12] = experiment: Growth inhibition of human CCRF-CEM cells assessed as cell growth at 10^-5 M after 48 hrs by sulforhodamine B assay; details: read-out: Activity
SNB-19 [13] = experiment: Growth inhibition of human SNB19 cells assessed as cell growth at 10^-4 M after 48 hrs by sulforhodamine B assay; details: SNB-19, 48 h, read-out: Activity
MDA-MB-231 = experiment: Growth inhibition of human MDA-MB-231 cells assessed as cell growth at 10^-5 M after 48 hrs by sulforhodamine B assay; details: MDA-MB-231, 48 h, read-out: Activity
DU-145 = experiment: Growth inhibition of human DU145 cells assessed as cell growth at 10^-5 M after 48 hrs by sulforhodamine B assay; details: DU-145, 48 h, read-out: Activity
PC-3 [14] = experiment: Growth inhibition of human PC3 cells assessed as cell growth at 10^-5 M after 48 hrs by sulforhodamine B assay; details: PC-3, 48 h, read-out: Activity
[15] = Growth inhibition of human RXF393 cells assessed as cell growth at 10^-5 M after 48 hrs by sulforhodamine B assay; details: RXF 393, 48 h, read-out: Activity
COLO 205 [16] = experiment: Induction of apoptosis in human COLO205 cells at 10 uM after 24 hrs by Annexin V/propidium iodide staining-based fluorescence microscopy
U-251 = experiment: Growth inhibition of human U251 cells assessed as cell growth at 10^-8 M after 48 hrs by sulforhodamine B assay; details: U-251, 48 h
COLO 205 [17] = experiment: Growth inhibition of human COLO205 cells assessed as cell growth at 10^-8 M after 48 hrs by sulforhodamine B assay; details: COLO 205, 48 h
IGROV-1 [18] = experiment: Growth inhibition of human IGROV1 cells after 48 hrs by sulforhodamine B assay; details: IGROV-1, 48 h
SK-MEL-5 [19] = experiment: Growth inhibition of human SK-MEL-5 cells after 48 hrs by sulforhodamine B assay; details: SK-MEL-5, 48 h
[20] = Growth inhibition of human HCT15 cells after 48 hrs by sulforhodamine B assay; details: HCT-15, 48 h
PC-3 [21] = experiment: Growth inhibition of human PC3 cells assessed as cell growth at 10^-4 M after 48 hrs by sulforhodamine B assay; details: PC-3, 48 h, read-out: Activity
[22] = Growth inhibition of human RXF393 cells assessed as cell growth at 10^-4 M after 48 hrs by sulforhodamine B assay; details: RXF 393, 48 h, read-out: Activity
COLO 205 [23] = experiment: Growth inhibition of human COLO205 cells assessed as cell growth at 10^-7 M after 48 hrs by sulforhodamine B assay; details: COLO 205, 48 h, read-out: Activity
NCI-H522 [24] = experiment: Growth inhibition of human NCI-H522 cells assessed as cell growth at 10^-7 M after 48 hrs by sulforhodamine B assay; details: NCI-H522, 48 h, read-out: Activity
SR = experiment: Growth inhibition of human SR cells assessed as cell growth at 10^-7 M after 48 hrs by sulforhodamine B assay; details: read-out: Activity
CCRF-CEM [25] = experiment: Growth inhibition of human CCRF-CEM cells assessed as cell growth at 10^-7 M after 48 hrs by sulforhodamine B assay; details: read-out: Activity
PC-3 [26] = experiment: Growth inhibition of human PC3 cells assessed as cell growth at 10^-8 M after 48 hrs by sulforhodamine B assay; details: PC-3, 48 h
[27] = read-out: LC50 (the source's name)

O=C1/C(=C/c2ccc(Cl)cc2Cl)CN(S(=O)(=O)c2ccccc2)C/C1=C\c1ccc(Cl)cc1Cl
growth at 1 µM (IGROV-1 [1]): -30%
growth at 1 µM (SK-MEL-5 [2]): 94%
growth at 1 µM [3]: 13%
growth at 10 µM [4]: 8%
growth at 10 µM [5]: -12%
growth at 10 µM [6]: -79%
growth at 10 µM (Malme-3M): -21%
growth at 10 µM (SNB-19 [7]): -39.1%
growth at 10 µM (SNB-75): -6%
growth at 10 µM [8]: -83%
growth at 10 µM (NCI-H522 [9]): -51%
growth at 10 µM (NCI-H226): -62%
growth at 10 µM [10]: -25%
growth at 10 µM (A549): -43%
growth at 10 µM (RPMI-8226): -29%
growth at 10 µM [11]: -2%
growth at 10 µM (CCRF-CEM [12]): -14%
growth at 100 µM (SNB-19 [13]): -23%
growth at 10 µM (MDA-MB-231): -52%
growth at 10 µM (DU-145): 4%
growth at 10 µM (PC-3 [14]): -25%
growth at 10 µM [15]: -87%
Activity (COLO 205 [16]): 66%
GI50 (U-251): 174 nM
LC50 (U-251): 813 nM
growth at 0.01 µM (U-251; read-out: Activity): 96%
TGI (U-251; read-out: pTGI (converted)): 372 nM
GI50 (COLO 205 [17]): 427 nM
LC50 (COLO 205 [17]): > 100000 nM
growth at 0.01 µM (COLO 205 [17]; read-out: Activity): 106%
TGI (COLO 205 [17]; read-out: pTGI (converted)): 2000 nM
GI50 (IGROV-1 [18]): 317 nM
TGI (IGROV-1 [18]): 649 nM
CC50 (IGROV-1 [18]; [27]): > 100000 nM
TGI (SK-MEL-5 [19]): > 100000 nM
CC50 (SK-MEL-5 [19]; [27]): > 100000 nM
GI50 [20]: 247 nM
TGI [20]: 759 nM
CC50 [20, 27]: > 100000 nM
growth at 100 µM (PC-3 [21]): -26%
growth at 100 µM [22]: -88%
growth at 0.1 µM (COLO 205 [23]): 107%
growth at 0.1 µM (NCI-H522 [24]): 97%
growth at 0.1 µM (SR): 70%
growth at 0.1 µM (CCRF-CEM [25]): 92%
GI50 (PC-3 [26]): 288 nM
LC50 (PC-3 [26]): > 100000 nM
growth at 0.01 µM (PC-3 [26]; read-out: Activity): 100%
TGI (PC-3 [26]; read-out: pTGI (converted)): 1020 nM
